Data as given in patent US20240374520A1, “PROTEOLIPID VESICLES FORMULATED WITH FUSION ASSOCIATED SMALL TRANSMEMBRANE PROTEINS” (priority 2020, published 2024).

System: WI-38 cells
Assay type: cell-based, human
Conditions: Alamar Blue, 72 hours after addition to WI-38 cells
Procedure: Conventional LNPs rely on endosomal escape for intracellular delivery, which results in limited nucleic acid release into the cytosol and is one of the major limitations of LNPs formulated for gene therapy (13, 20, 41). […] These lipids were utilized in a PLV formulation to promote nucleic acid encapsulation through charge neutralization. The optimal molar ratio of DODAP to pDNA was assessed by measuring the delivery and subsequent expression of DNA-encoded firefly luciferase (pDNA-FLuc) in retinal pigmented epithelial (ARPE-19) cells.
Cell cultures in a 96 well plates were treated with test compounds at indicated concentrations. After 24-96 hours, a 1/10 volume of Alamar blue solution (440 μM Resazurin; Sigma R7017 5GM) was added to the cells in culture medium and incubated for 2-4 hours at 37° C. 5% CO2. The Omega Fluostar (BMG LabTech) plate reader was used to measure the fluorescence (excitation wavelength of 540 nm and emission at 590 nm) of the treated cells. Cell viability was calculated using the following formula: […]

Compound | tolerability / toxicity of cationic and ionizable lipids
CCCCCCCC/C=C\CCCCCCCC(=O)OCC(C[N+](C)(C)C)OC(=O)CCCCCCC/C=C\CCCCCCCC (centres unmarked) [DOTAP, 1,2-dioleoyl-3-trimethylammonium-propane] | slightly higher toxicity
CCCCCCCC/C=C\CCCCCCCC(=O)OCC(CN(C)C)OC(=O)CCCCCCC/C=C\CCCCCCCC (centres unmarked) [DODAP, 1,2-dioleoyl-3-dimethylammonium-propane] | most favorable tolerability
